Our source for the T/C values is PubChem BioAssay AID256 (DTP/NCI, 2004).

In the assay the test system is CD2F1 mice, L1210 leukemia ip, survival T/C. Put plainly: NCI In Vivo Anticancer Drug Screen. Data for tumor model L1210 Leukemia (intraperitoneal) in CD2F1 (CDF1) mice. As to conditions: higher = longer survival. Put shortly: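 Antitumor effect is scored in animals hosting a serially transplanted tumor. Values compare compound-dosed animals against vehicle-only controls as a simple quotient.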

Where [1] appears, read: endpoint: mean survival time, dose: 25.0 mg/kg/injection, schedule: Q01DX001 (ip), vehicle: saline with Tween-80.
The mark [2] stands for this setting: endpoint: mean survival time, dose: 50.0 mg/kg/injection, schedule: Q01DX001 (ip), vehicle: saline with Tween-80.
Where [3] appears, read: endpoint: mean survival time, dose: 100.0 mg/kg/injection, schedule: Q01DX001 (ip), vehicle: saline with Tween-80.
[4] abbreviates: endpoint: mean survival time, dose: 50.0 mg/kg/injection, schedule: Q01DX009 (ip), vehicle: saline with Tween-80.
The mark [5] stands for this setting: endpoint: mean survival time, dose: 100.0 mg/kg/injection, schedule: Q01DX009 (ip), vehicle: saline with Tween-80.
[6] abbreviates: endpoint: mean survival time, dose: 200.0 mg/kg/injection, schedule: Q01DX001 (ip), vehicle: saline with Tween-80.

The structures appear in SMILES notation. “And” between values parts separate entries of the source, which are not always exact repeats. Equal entries are not always repeated. Toxic doses and inconclusive results are not listed.

With `O=NN(CCCl)C(=O)Nc1ccccn1`, the T/C by setting is: (endpoint: mean survival time, dose: 12.5 mg/kg/injection, schedule: Q01DX001 (ip), vehicle: other) 101 % of control; (endpoint: mean survival time, dose: 25.0 mg/kg/injection, schedule: Q01DX001 (ip), vehicle: other) 94 % of control; (endpoint: mean survival time, dose: 50.0 mg/kg/injection, schedule: Q01DX001 (ip), vehicle: other) 101 % of control; (endpoint: mean survival time, dose: 100.0 mg/kg/injection, schedule: Q01DX001 (ip), vehicle: other) 96 % of control.
As for `COc1ccc(C2=CCN(c3ccc(C)cc3)P(=O)(N(CCCl)CCCl)O2)cc1` (stereo unspecified), the T/C runs as follows: (endpoint: mean survival time, dose: 31.25 mg/kg/injection, schedule: Q01DX001 (ip), vehicle: saline) 100 % of control; (endpoint: mean survival time, dose: 62.5 mg/kg/injection, schedule: Q01DX001 (ip), vehicle: saline) 100 % of control; (endpoint: mean survival time, dose: 125.0 mg/kg/injection, schedule: Q01DX001 (ip), vehicle: saline) 97 % of control; (endpoint: mean survival time, dose: 250.0 mg/kg/injection, schedule: Q01DX001 (ip), vehicle: saline) 102 % of control; (endpoint: mean survival time, dose: 500.0 mg/kg/injection, schedule: Q01DX001 (ip), vehicle: saline) 91 % of control.
On to `CC1(C)N=C(N)N=C(N)N1c1ccc(OCCCCNC(=O)Nc2ccc(S(=O)(=O)F)cc2)c(Cl)c1`, for which the T/C is, setting by setting: under setting [1], 101 % of control; under setting [2], 95 % of control; under setting [3], 94 % of control and 95 % of control.
`CC(Br)C(C)Br` (stereo unspecified): the T/C is, setting by setting: (endpoint: mean survival time, dose: 50.0 mg/kg/injection, schedule: Q01DX009 (ip), vehicle: saline) 103 % of control; (endpoint: mean survival time, dose: 100.0 mg/kg/injection, schedule: Q01DX009 (ip), vehicle: saline) 95 % of control; (endpoint: mean survival time, dose: 200.0 mg/kg/injection, schedule: Q01DX009 (ip), vehicle: saline) 100 % of control.
Turning to `CC1=NNC2c3ccccc3-c3ccccc3N2C1` (stereo unspecified), the T/C was 94 % of control (endpoint: mean survival time, dose: 100.0 mg/kg/injection, schedule: Q01DX001 (ip), vehicle: saline); 93 % of control (endpoint: mean survival time, dose: 200.0 mg/kg/injection, schedule: Q01DX001 (ip), vehicle: saline); 98 % of control (endpoint: mean survival time, dose: 400.0 mg/kg/injection, schedule: Q01DX001 (ip), vehicle: saline).
Consider `O=C1c2ccccc2C(=O)c2c(O)c(Cc3ccccn3)cc(O)c21`, for which the T/C was 96 % of control (endpoint: mean survival time, dose: 100.0 mg/kg/injection, schedule: Q01DX009 (ip), vehicle: saline sonified); 94 % of control (endpoint: mean survival time, dose: 200.0 mg/kg/injection, schedule: Q01DX009 (ip), vehicle: saline sonified); 98 % of control (endpoint: mean survival time, dose: 400.0 mg/kg/injection, schedule: Q01DX009 (ip), vehicle: saline sonified).
In the case of `Cc1ccc(NC(=O)Oc2cc(C)c(Cl)cc2C)cc1C`, the T/C is, setting by setting: under setting [4], 100 % of control; under setting [5], 100 % of control; (endpoint: mean survival time, dose: 200.0 mg/kg/injection, schedule: Q01DX009 (ip), vehicle: saline with Tween-80) 92 % of control.
For `COc1ccc(S(=O)(=O)N/N=C/C(=O)O)cc1`, the T/C runs as follows: (endpoint: mean survival time, dose: 6.25 mg/kg/injection, schedule: Q01DX009 (ip), vehicle: saline with Tween-80) 115 % of control; (endpoint: mean survival time, dose: 12.5 mg/kg/injection, schedule: Q01DX009 (ip), vehicle: alkali diluted with water) 114 % of control; (endpoint: mean survival time, dose: 12.5 mg/kg/injection, schedule: Q01DX009 (ip), vehicle: saline with Tween-80) 121 % of control; (endpoint: mean survival time, dose: 12.5 mg/kg/injection, schedule: Q04DX003 (ip), vehicle: other) 109 % of control; (endpoint: mean survival time, dose: 25.0 mg/kg/injection, schedule: Q01DX009 (ip), vehicle: alkali diluted with water) 116 % of control; (endpoint: mean survival time, dose: 25.0 mg/kg/injection, schedule: Q04DX003 (ip), vehicle: other) 117 % of control. In addition, the T/C is, setting by setting: (endpoint: mean survival time, dose: 50.0 mg/kg/injection, schedule: Q01DX009 (ip), vehicle: alkali diluted with water) 124 % of control; under setting [4], 163 % of control; (endpoint: mean survival time, dose: 50.0 mg/kg/injection, schedule: Q04DX003 (ip), vehicle: other) 124 % of control; under setting [5], 151 % of control; (endpoint: mean survival time, dose: 100.0 mg/kg/injection, schedule: Q04DX003 (ip), vehicle: other) 154 % of control; (endpoint: mean survival time, dose: 200.0 mg/kg/injection, schedule: Q01DX009 (ip), vehicle: alkali diluted with water) 153 % of control. Moreover, the T/C runs as follows: (endpoint: mean survival time, dose: 200.0 mg/kg/injection, schedule: Q04DX003 (ip), vehicle: other) 155 % of control and 163 % of control and 203 % of control; (endpoint: median survival time, dose: 12.5 mg/kg/injection, schedule: Q01DX009 (oral), vehicle: saline with Tween-80) 105 % of control; (endpoint: median survival time, dose: 25.0 mg/kg/injection, schedule: Q01DX009 (oral), vehicle: saline with Tween-80) 105 % of control; (endpoint: median survival time, dose: 50.0 mg/kg/injection, schedule: Q01DX009 (oral), vehicle: saline with Tween-80) 103 % of control; (endpoint: median survival time, dose: 100.0 mg/kg/injection, schedule: Q01DX009 (oral), vehicle: saline with Tween-80) 95 % of control; (endpoint: median survival time, dose: 200.0 mg/kg/injection, schedule: Q01DX009 (oral), vehicle: saline with Tween-80) 98 % of control. The T/C (endpoint: median survival time, dose: 400.0 mg/kg/injection, schedule: Q01DX009 (oral), vehicle: saline with Tween-80) is 105 % of control.
As for `[C-]#[O+].[C-]#[O+].[C-]#[O+].[C-]#[O+].[C-]#[O+].[I][Re]`, for the setting “endpoint: mean survival time, dose: 50.0 mg/kg/injection, schedule: Q04DX002 (ip), vehicle: other”, the T/C is 123 % of control.
Consider `CCOc1cc2c(cc1C(C)c1ccc(OC)cc1)OCO2` (stereo unspecified), for which the T/C (endpoint: median survival time, dose: 12.5 mg/kg/injection, schedule: Q01DX009 (ip), vehicle: distilled water + alcohol) was 103 % of control; the T/C (endpoint: median survival time, dose: 25.0 mg/kg/injection, schedule: Q01DX009 (ip), vehicle: distilled water + alcohol) was 93 % of control and 104 % of control; the T/C (endpoint: median survival time, dose: 50.0 mg/kg/injection, schedule: Q01DX009 (ip), vehicle: distilled water + alcohol) was 115 % of control and 98 % of control; the T/C (endpoint: median survival time, dose: 100.0 mg/kg/injection, schedule: Q01DX009 (ip), vehicle: distilled water + alcohol) is 98 % of control and 108 % of control; the T/C (endpoint: median survival time, dose: 200.0 mg/kg/injection, schedule: Q01DX009 (ip), vehicle: distilled water + alcohol) was 111 % of control.
Turning to `OC1CCC2CCCCC2C1` (stereo unspecified), the T/C is 107 % of control (endpoint: mean survival time, dose: 25.0 mg/kg/injection, schedule: Q04DX003 (ip), vehicle: saline); 94 % of control (endpoint: mean survival time, dose: 50.0 mg/kg/injection, schedule: Q04DX003 (ip), vehicle: saline); 102 % of control (endpoint: mean survival time, dose: 100.0 mg/kg/injection, schedule: Q04DX003 (ip), vehicle: saline with Tween-80); 98 % of control (endpoint: mean survival time, dose: 100.0 mg/kg/injection, schedule: Q04DX003 (ip), vehicle: saline); 107 % of control (endpoint: mean survival time, dose: 200.0 mg/kg/injection, schedule: Q04DX003 (ip), vehicle: saline with Tween-80); 101 % of control (endpoint: mean survival time, dose: 400.0 mg/kg/injection, schedule: Q04DX003 (ip), vehicle: saline with Tween-80).
Turning to `CCOC(=O)Nc1cc(NC/C(CCc2ccccc2)=N/O)c([N+](=O)[O-])c(N)n1`, the T/C by setting is: (endpoint: mean survival time, dose: 100.0 mg/kg/injection, schedule: Q01DX001 (ip), vehicle: Klucel (hydroxypropylcellulose) (HPC)) 96 % of control; (endpoint: mean survival time, dose: 200.0 mg/kg/injection, schedule: Q01DX001 (ip), vehicle: Klucel (hydroxypropylcellulose) (HPC)) 91 % of control; (endpoint: mean survival time, dose: 400.0 mg/kg/injection, schedule: Q01DX001 (ip), vehicle: Klucel (hydroxypropylcellulose) (HPC)) 90 % of control.
As for `O=C(/C=C/c1ccc(Cl)c(Cl)c1)c1ccccc1`, the T/C (endpoint: mean survival time, dose: 50.0 mg/kg/injection, schedule: Q01DX009 (ip), vehicle: Klucel (hydroxypropylcellulose) (HPC)) is 105 % of control and the T/C (endpoint: mean survival time, dose: 100.0 mg/kg/injection, schedule: Q01DX009 (ip), vehicle: Klucel (hydroxypropylcellulose) (HPC)) was 98 % of control.
Take `[Cl][Pt+2][Cl].c1ccc(CC2CC[N-]CC2)cc1.c1ccc(CC2CC[N-]CC2)cc1`: the T/C is 96 % of control under setting [2], 96 % of control under setting [3] and 90 % of control under setting [6].
As to `O=C1CC(=O)C(CCc2cccc3ccccc23)C1=O` (stereo unspecified), the T/C under setting [3] was 86 % of control; the T/C (endpoint: mean survival time, dose: 100.0 mg/kg/injection, schedule: Q04DX002 (ip), vehicle: saline with Tween-80) was 100 % of control; the T/C under setting [6] was 94 % of control; the T/C (endpoint: mean survival time, dose: 200.0 mg/kg/injection, schedule: Q04DX002 (ip), vehicle: saline with Tween-80) is 93 % of control; the T/C (endpoint: mean survival time, dose: 400.0 mg/kg/injection, schedule: Q01DX001 (ip), vehicle: saline with Tween-80) was 105 % of control.
`CC1CC[N-]CC1.CC1CC[N-]CC1.[Cl][Pt+2][Cl]`: the T/C reads like this: (endpoint: mean survival time, dose: 6.25 mg/kg/injection, schedule: Q01DX001 (ip), vehicle: saline with Tween-80) 101 % of control; (endpoint: mean survival time, dose: 12.5 mg/kg/injection, schedule: Q01DX001 (ip), vehicle: saline with Tween-80) 111 % of control; under setting [1], 112 % of control.
